Assays:
[1] = test system: animal models of hypertension; conditions: cited from earlier work
[2] = test system: spontaneous hypertensive rats (SHR); test: Anti-hypertensive efficacy of monotherapy and combined therapy in spontaneous hypertensive rats (tail-cuff blood pressure); format: in vivo, rat
Description: An in vivo study was conducted to measure and compare the anti-hypertensive efficacy and tolerability of dextromethorphan and amlodipine in monotherapy and combined therapy in spontaneous hypertensive rats, an animal model for hypertension. The same study can be performed with other NADPH oxidase inhibitor and CCB.
Aged 18-week male normotensive Wistar Kyoto (WKY) and spontaneous hypertensive rats (SHR) were used in this study.
Untreated WKY and SHR were compared with SHR treated with amlodipine (1, 5 mg/kg/day) or dextromethorphan (1, 5, 25 mg/kg/day) and fix dose combination (AM+DM) using a matrix combination of above doses for 4 weeks. All the treatment groups are listed in Table 1, including G1˜G12 for SHR and G0 for WKY as a control.
Control rats (G0 and G1) received 1% solution of methylcellulose (1 ml/kg) by a gavage as a vehicle. AM and DM were suspended in 1% solution of methylcellulose and administered by a gavage in a 1 ml/kg volume. All compounds were administered for 4 weeks. Arterial blood pressure measurement and blood sampling were carried out before treatment, and after the second and forth week of drug administration.
Arterial blood pressure was measured in conscious rats with an automatic sphygmomanometer, using tail-cuff method. Before the measurements, the animals were placed inside a warming chamber (about 34° C.) for 30 min. The aim of the procedure is to calm the animals and dilate the tail blood vessels. Arterial blood pressure was measured at least three times for each animal. Changes in pressure are expressed as the percentage of baseline values.
Arterial blood pressure and blood sampling will be measured before treatment, and after the second and forth week of drug administration (FIG. 6).
Results are expressed as mean±SD. The normality of distribution was checked by means of Kolmogorov-Smirnov test with Lilliefors test. The statistical evaluation was performed using analysis of variance (ANOVA) and post hoc comparisons were performed by means of Least Significant Differences (LSD) test. If the data were not normally distributed, statistical evaluation was performed by using ANOVA (Kruskall-Wallis) and Mann-Whitney U test. Differences were considered significant when p<0.05.

[3] = test system: apolipoprotein E (apoE)-deficient mice; conditions: cited from earlier work

Compound: COc1cc(C(C)=O)ccc1O [apocynin]
- blood pressure [1]: decrease blood pressure

Compound: CCOC(=O)C1=C(COCCN)NC(C)=C(C(=O)OC)C1c1ccccc1Cl (stereo not shown) [AM, 3-ethyl 5-methyl 2-[(2-aminoethoxy)methyl]-4-(2-chlorophenyl)-1,4-dihydro-6-m ethylpyridine-3,5-dicarboxylate]
- blood pressure lowering effect (SBP, DBP, MBP) ([2]; AM alone at 1 and 5 mg/kg/day by gavage for 4 weeks, FIGS. 2a-d): resulted in lowering of the blood pressure
- dosage response of blood pressure lowering ([2]; AM alone, 1 vs 5 mg/kg/day): more pronounced with the higher dose

Compound: COc1ccc2c(c1)[C@]13CCCC[C@@H]1[C@H](C2)N(C)CC3 [DM, (+)-3-methoxy-17-methyl-9α,13α,14α-morphinan]
- blood pressure lowering effect (SBP, DBP, MBP) ([2]; DM alone at 1, 5 and 25 mg/kg/day by gavage for 4 weeks, FIGS. 1a-d): resulted in lowering of the blood pressure
- dosage response of blood pressure lowering ([2]; DM alone, 1 vs 5 vs 25 mg/kg/day): no clear dosage response was observed
- superoxide production ([3]; aorta and carotid artery of apoE-deficient mice): decreases superoxide production
- oxidative stress, atherosclerosis and neointima formation ([3]; mice, through direct inhibition of NADPH oxidase): reduces oxidative stress and inhibits atherosclerosis and neointima formation

Reference: patent US9744165B2, “Method for treating hypertension” (TSH Biopharm Corporation Ltd., priority 2010, dated 2017)
